Entries after “also recorded” stand apart in the source; their conditions may differ.
Columns and labels:
[1] = system: nitric oxide production by macrophages (murine macrophage cell line RAW 264.7); assay: Nitric oxide production by macrophages; assay type: cell-based
[2] = system: TNFα production by THP-1 cells; assay: TNF-alpha production by macrophages; assay type: cell-based, human; conditions: THP-1 cells stimulated with opsonized zymosan, 24 hours; read-out: IC50 TNFα production
Procedure: The human macrophage cell line, THP-1 was plated in a 12-well plate such that each well contains 1×10^6 cells in 2 ml of media containing 10% FCS. Opsonized zymosan was prepared by resuspending 20 mg of zymosan A in 2 ml of ddH2O and homogenizing until a uniform suspension was obtained. Homogenized zymosan was pelleted at 250 g and resuspended in 4 ml of human serum for a final concentration of 5 mg/ml and incubated in a 37° C. water bath for 20 minutes to enable opsonization.
THP-1 cells were stimulated to produce TNFα by the addition of 1 mg/ml opsonized zymosan. […] Each drug concentration was tested in triplicate wells. Plates were incubated at 37° C. for 24 hours.
After a 24-hour stimulation, supernatants were collected to quantify TNFα production. TNFα concentrations in the supernatants were determined by ELISA using recombinant human TNFα to obtain a standard curve A 96-well MaxiSorb plate was coated with 100 μL of anti-human TNFα Capture Antibody diluted in Coating Buffer (0.1M sodium carbonate pH 9 5) overnight at 4° C. The dilution of Capture Antibody used was lot-specific and was determined empirically. Capture antibody was then aspirated and the plate washed 3 times with Wash Buffer (PBS, 0.05% TWEEN-20) Plates were blocked for 1 hour at room temperature with 200 μL/well of Assay Diluent (PBS, 10% FCS pH 7.0). After blocking, plates were washed 3 times with Wash Buffer. […] Sample supernatants and standards were assayed in triplicate and were incubated at room temperature for 2 hours after addition to the plate coated with Capture Antibody. The plates were washed 5 times and incubated with 100 μL of Working Detector (biotinylated anti-human TNFα detection antibody+avidin-HRP) for 1 hour at room temperature. Following this incubation, the plates were washed 7 times and 100 μL of Substrate Solution (tetramethylbenzidine, H2O2) was added to plates and incubated for 30 minutes at room temperature. […] Mean absorbance was determined from triplicate data readings and the mean background was subtracted. TNFα concentration values were obtained from the standard curve.

[3] = system: MCP-1 production by THP-1 cells; assay: MCP-1 production by macrophages; assay type: cell-based, human; conditions: THP-1 cells stimulated with opsonized zymosan, 24 hours; read-out: IC50 MCP-1 production
Summary of the method: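 THP-1 cells (1×10^6/well, 10% FCS) stimulated with 1 mg/ml serum-opsonized zymosan plus compound added from DMSO stocks at 1/1000, 24 h at 37° C. MCP-1 in supernatants quantified by sandwich ELISA (TMB read-out) against a recombinant human MCP-1 standard curve, triplicates, background-subtracted.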

[4] = system: Primary human smooth muscle cells; assay: Smooth muscle cell migration; assay type: cell-based; conditions: chemotaxis to rhPDGF-BB 10 ng/ml, 4 hours
Procedure: Primary human smooth muscle cells were starved of serum in smooth muscle cell basal media containing insulin and human basic fibroblast growth factor (bFGF) for 16 hours prior to the assay. For the migration assay, cells were trypsinized to remove cells from flasks, washed with migration media and diluted to a concentration of 2-2.5×10^5 cells/ml in migration media. Migration media consists of phenol red free Dulbecco's Modified Eagle Medium (DMEM) containing 0.35% human serum albumin. A 100 μL volume of smooth muscle cells (approximately 20,000-25,000 cells) was added to the top of a Boyden chamber assembly (Chemicon QCM CHEMOTAXIS 96-well migration plate). To the bottom wells, the chemotactic agent, recombinant human platelet derived growth factor (rhPDGF-BB) was added at a concentration of 10 ng/ml in a total volume of 150 μL. Paclitaxel was prepared in DMSO at a concentration of 10^−2 M and serially diluted 10-fold to give a range of stock concentrations (10^−8 M to 10^−2 M). […]
At the end of the 4-hour period, cells in the top chamber were discarded and the smooth muscle cells attached to the underside of the filter were detached for 30 minutes at 37° C. in Cell Detachment Solution (Chemicon). […] Fluorescence was read in a fluorescence microplate reader at ˜480 nm excitation wavelength and ˜520 nm emission maxima. […]

[5] = system: stromelysin (MMP-3); assay: IL-1 induced stromelysin (MMP-3) mRNA expression in chondrocytes; assay type: cell-based
Procedure: (§1) Cells were treated with paclitaxel at various concentrations (10^−7 to 10^−5 M) for 24 hours, then treated with IL-1β (20 ng/ml) for additional 18 hours in the presence of paclitaxel. Total RNA was isolated, and the MMP-1 mRNA levels were determined by Northern blot analysis. The blots were subsequently stripped and re-probed with ^32P-radiolabeled rat GAPDH cDNA, which was used as a housekeeping gene. The results shown are representative of four independent experiments (FIG. 10D). Quantitation of collagenase-1 and stromelysin-expression mRNA levels were conducted. The MMP-1 and MMP-3 expression levels were normalized with GAPDH.

[6] = system: human fibroblasts; assay: Cell proliferation of fibroblasts; assay type: cell-based; conditions: Fibroblast, 72 hours, CYQUANT, read-out: IC50 cell proliferation of fibroblasts
Summary of the method: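 Human fibroblasts plated at 600 cells/well, attached overnight, then exposed to drug in triplicate for 72 h at 37°C. Cell content read with CYQUANT GR dye in lysis buffer after 3-5 min at room temperature.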

[7] = system: collagenase (MMP-1); assay: IL-1 induced collagenase (MMP-1) mRNA expression in chondrocytes; assay type: cell-based, calf
Procedure: as §1
Primary chondrocyte cultures were freshly isolated from calf cartilage. The cells were plated at 2.5×10^6 per ml in 100×20 mm culture dishes and incubated in Ham's F12 medium containing 5% FBS overnight at 37° C. The cells were starved in serum-free medium overnight and then treated with anti-microtubule agents at various concentrations for 6 hours. IL-1 (20 ng/ml) was then added to each plate and the plates incubated for an additional 18 hours. Total RNA was isolated by the acidified guanidine isothiocyanate method and subjected to electrophoresis on a denatured gel Denatured RNA samples (15 μg) were analyzed by gel electrophoresis in a 1% denatured gel, transferred to a nylon membrane and hydridized with the ^32P-labeled collagenase cDNA probe. ^32P-labeled glyceraldehyde phosphate […] (GAPDH) cDNA was used as an internal standard to ensure roughly equal loading. The exposed films were scanned and quantitatively analyzed with IMAGEQUANT.

[8] = system: AP-1; assay: IL-1 induced AP-1 DNA binding activity (gel mobility shift); assay type: cell-based; conditions: chondrocyte lysates, pretreated 10^−7 to 10^−5 M for 24 hours
Procedure: Binding activity was assayed with a radiolabeled human AP-1 sequence probe and gel mobility shift assay. Extracts from chondrocytes untreated or treated with various amounts of paclitaxet (10^−7 to 10^−5 M) followed by IL-1β (20 ng/ml) were incubated with excess probe on ice for 30 minutes, followed by non-denaturing gel electrophoresis (FIG. 10B). The “com” lane contains excess unlabeled AP-1 oligonucleotide. The results shown are representative of three independent experiments.

[9] = system: Smooth muscle cells; assay: Proliferation of smooth muscle cells; assay type: cell-based; conditions: 72 hours, CYQUANT; read-out: IC50 proliferation of smooth muscle cells
Summary of the method: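 Smooth muscle cells at 600 cells/well, exposed to paclitaxel (DMSO stocks 10^−8 to 10^−2 M) in triplicate for 72 h at 37 °C. Proliferation read with CyQUANT GR dye in lysis buffer.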

[10] = system: CAM vasculature (angiogenesis); assay: Chick chorioallantoic membrane (CAM) assay; conditions: for Inhibition/n: 48 hours
[11] = system: AP-1; assay: IL-1 stimulated AP-1 transcriptional activity (CAT reporter) in chondrocytes; assay type: cell-based; conditions: 10^−7 to 10^−5 M
[12] = system: murine RAW 264.7 macrophage cell line; assay: Proliferation of murine RAW 264.7 macrophage cell line; assay type: cell-based; conditions: Mus musculus, RAW264.7

Q: `C/C(=N\N=C(N)N)c1cc(NC(=O)CCCCCCCCC(=O)Nc2cc(/C(C)=N/N=C(N)N)cc(/C(C)=N/N=C(N)N)c2)cc(/C(C)=N/N=C(N)N)c1` [CNI-1493] was tested. Which IC50 [1] did it give?
A: Its IC50 is 249 nM.

Q: What about the IC50 [2] of the same compound?
A: Its IC50 is 0.15 nM.

Q: What about the IC50 [3] of the same compound?
A: Its IC50 is 0.02 nM.

Q: Which IC50 [4] does the source give for `CC(=O)O[C@H]1C(=O)[C@@]2(C)[C@H]([C@H](OC(=O)c3ccccc3)[C@]3(O)C[C@H](OC(=O)[C@H](O)[C@@H](NC(=O)c4ccccc4)c4ccccc4)C(C)=C1C3(C)C)[C@]1(OC(C)=O)CO[C@@H]1C[C@@H]2O` [paclitaxel, 5β,20-epoxy-1,2 alpha,4,7β,10β,13 alpha-hexahydroxytax-11-en-9-one-4,10-diacetate-2-benzoate-13-(alpha-phenylhippurate)] here?
A: The IC50 was 0.76 nM.

Q: And the “IL-1 induced stromelysin mRNA levels” value ([5]; at 10^−5 M)?
A: The value was “complete inhibition”.

Q: What about the “concentration that inhibits stromelysin expression” value ([5]; chondrocytes in vitro) of the same compound?
A: Its value is 10^−6 M.

Q: What about the “IL-1 induced stromelysin mRNA levels” value ([5]; chondrocytes, pretreatment for 24 hours) of the same compound?
A: The value was “significantly reduced; also recorded: inhibited”.

Q: And the IC50 [6]?
A: The IC50 was 10 to 100 nM.

Q: What about the “IL-1 induced collagenase mRNA levels” value ([7]; at 10^−5 M) of the same compound?
A: The value was “complete inhibition”.

Q: What about the “concentration that inhibits IL-1-induced collagenase expression” value ([7]; chondrocytes in vitro) of the same compound?
A: The value was 10^−6 M.

Q: What about the “IL-1 induced collagenase mRNA levels” value ([7]; chondrocytes, pretreatment before IL-1) of the same compound?
A: Its value is “significantly reduced; also recorded: inhibited”.

Q: What about the “IL-1 induced AP-1 binding activity” value [8] of the same compound?
A: Its value is “decreased”.

Q: And the IC50 [9]?
A: Its IC50 is 7 nM.

Q: And the Inhibition/n ([10]; 0.25 μg in methylcellulose (10 μl))?
A: The Inhibition/n was 2/11.

Q: And the Inhibition/n ([10]; 0.5 μg in methylcellulose (10 μl))?
A: The Inhibition/n was 6/11.

Q: What about the Inhibition/n ([10]; 1 μg in methylcellulose (10 μl)) of the same compound?
A: The Inhibition/n was 6/15.

Q: And the Inhibition/n ([10]; 5 μg in methylcellulose (10 μl))?
A: Its Inhibition/n is 20/27.

Q: And the Inhibition/n ([10]; 10 μg in methylcellulose (10 μl))?
A: Its Inhibition/n is 16/21.

Q: What about the Inhibition/n ([10]; 30 μg in methylcellulose (10 μl)) of the same compound?
A: Its Inhibition/n is 31/31.

Q: What about the angiogenesis ([10]; 48 hours after application to the CAM) of the same compound?
A: The angiogenesis was “inhibited”.

Q: And the avascular gradient scale ([10]; maximal avascular zone within 48 hours, depending on concentration)?
A: The avascular gradient scale was 3.

Q: What about the “IL-1 induced AP-1 reporter gene CAT activity” value [11] of the same compound?
A: Its value is “decreased CAT activity in a concentration dependent manner; also recorded: reduced”.

Q: And the IC50 [12]?
A: Its IC50 is 134 nM.

— patent US20090226500A1, “SUTURES AND ANTI-SCARRING AGENTS” (Angiotech Pharmaceuticals, Inc, priority 2006, published 2009)
